Source: ChEMBL document CHEMBL1255475, “Mutant prevention concentrations of four carbapenems against gram-negative rods” (2010)
≈ marks a conversion by molar mass, not a printed value.

What was measured:
Klebsiella pneumoniae [1] = assay: Ratio of mutant prevention concentration to minimum Inhibitory concentration for beta-lactamase-negative Klebsiella pneumoniae E420; assay type: functional
Klebsiella pneumoniae [2] = assay: Ratio of mutant prevention concentration to minimum Inhibitory concentration for beta-lactamase-positive ESBL-negative Klebsiella pneumoniae E507; assay type: functional
Klebsiella pneumoniae [3] = assay: Ratio of mutant prevention concentration to minimum Inhibitory concentration for beta-lactamase-positive ESBL-negative Klebsiella pneumoniae E472; assay type: functional
Escherichia coli [4] = assay: Ratio of mutant prevention concentration to minimum Inhibitory concentration for beta-lactamase-positive ESBL-negative Escherichia coli E483; assay type: functional
Klebsiella pneumoniae [5] = assay: Ratio of mutant prevention concentration to minimum Inhibitory concentration for beta-lactamase-positive ESBL-negative Klebsiella pneumoniae E473; assay type: functional
Pseudomonas aeruginosa [6] = assay: Antibacterial activity against Pseudomonas aeruginosa P353 incubated up to 7 days by agar dilution method; assay type: functional; conditions: P353, 168 h
Pseudomonas aeruginosa [7] = assay: Ratio of mutant prevention concentration to minimum Inhibitory concentration for Pseudomonas aeruginosa P326; assay type: functional
Acinetobacter baumannii [8] = assay: Ratio of mutant prevention concentration to minimum Inhibitory concentration for Acinetobacter baumannii A910; assay type: functional
Pseudomonas aeruginosa [9] = assay: Ratio of mutant prevention concentration to minimum Inhibitory concentration for Pseudomonas aeruginosa P334; assay type: functional
Acinetobacter baumannii [10] = assay: Ratio of mutant prevention concentration to minimum Inhibitory concentration for Acinetobacter baumannii A890; assay type: functional
Pseudomonas aeruginosa [11] = assay: Ratio of mutant prevention concentration to minimum Inhibitory concentration for Pseudomonas aeruginosa P349; assay type: functional
Acinetobacter baumannii [12] = assay: Antibacterial activity against Acinetobacter baumannii A865 incubated for 24 h by agar dilution method; conditions: A865, 24 h
Pseudomonas aeruginosa [13] = assay: Antibacterial activity against Pseudomonas aeruginosa P376 incubated up to 7 days by agar dilution method; assay type: functional; conditions: P376, 168 h
Pseudomonas aeruginosa [14] = assay: Antibacterial activity against Pseudomonas aeruginosa P363 incubated up to 7 days by agar dilution method; assay type: functional; conditions: P363, 168 h
Acinetobacter baumannii [15] = assay: Antibacterial activity against Acinetobacter baumannii A898 incubated for 24 hrs by agar dilution method; conditions: A898, 24 h
Pseudomonas aeruginosa [16] = assay: Antibacterial activity against Pseudomonas aeruginosa P337 incubated up to 7 days by agar dilution method; assay type: functional; conditions: P337, 168 h
Acinetobacter baumannii [17] = assay: Ratio of mutant prevention concentration to minimum Inhibitory concentration for Acinetobacter baumannii A848; assay type: functional
Acinetobacter baumannii [18] = assay: Ratio of mutant prevention concentration to minimum Inhibitory concentration for Acinetobacter baumannii A892; assay type: functional
Acinetobacter baumannii [19] = assay: Ratio of mutant prevention concentration to minimum Inhibitory concentration for Acinetobacter baumannii A911; assay type: functional
Pseudomonas aeruginosa [20] = assay: Ratio of mutant prevention concentration to minimum Inhibitory concentration for Pseudomonas aeruginosa P370; assay type: functional
Acinetobacter baumannii [21] = assay: Ratio of mutant prevention concentration to minimum Inhibitory concentration for Acinetobacter baumannii A898; assay type: functional
Pseudomonas aeruginosa [22] = assay: Ratio of mutant prevention concentration to minimum Inhibitory concentration for Pseudomonas aeruginosa P332; assay type: functional
Pseudomonas aeruginosa [23] = assay: Antibacterial activity against Pseudomonas aeruginosa P338 incubated up to 7 days by agar dilution method; assay type: functional; conditions: P338, 168 h
Pseudomonas aeruginosa [24] = assay: Antibacterial activity against Pseudomonas aeruginosa P332 incubated up to 7 days by agar dilution method; assay type: functional; conditions: P332, 168 h
Pseudomonas aeruginosa [25] = assay: Antibacterial activity against Pseudomonas aeruginosa P340 incubated up to 7 days by agar dilution method; assay type: functional; conditions: P340, 168 h
Acinetobacter baumannii [26] = assay: Ratio of mutant prevention concentration to minimum Inhibitory concentration for Acinetobacter baumannii A894; assay type: functional
Escherichia coli [27] = assay: Antibacterial activity against beta-lactamase-positive ESBL-positive Escherichia coli E451 after 24 hrs by agar dilution method; conditions: E451, 24 h
Klebsiella pneumoniae [28] = assay: Antibacterial activity against beta-lactamase-negative Klebsiella pneumoniae E361 after 24 hrs by agar dilution method; assay type: functional; conditions: E361, 24 h
Klebsiella pneumoniae [29] = assay: Antibacterial activity against beta-lactamase-negative Klebsiella pneumoniae E417 after 24 hrs by agar dilution method; assay type: functional; conditions: E417, 24 h
Pseudomonas aeruginosa [30] = assay: Antibacterial activity against Pseudomonas aeruginosa P349 after 24 hrs by agar dilution method; conditions: P349, 24 h
Pseudomonas aeruginosa [31] = assay: Antibacterial activity against Pseudomonas aeruginosa P323 after 24 hrs by agar dilution method; conditions: P323, 24 h
Klebsiella pneumoniae [32] = assay: Antibacterial activity against beta-lactamase-negative Klebsiella pneumoniae E360 after 24 hrs by agar dilution method; assay type: functional; conditions: E360, 24 h
Pseudomonas aeruginosa [33] = assay: Antibacterial activity against Pseudomonas aeruginosa P322 after 24 hrs by agar dilution method; conditions: P322, 24 h
Acinetobacter baumannii [34] = assay: Antibacterial activity against Acinetobacter baumannii A894 after 24 hrs by agar dilution method; assay type: functional; conditions: A894, 24 h
Escherichia coli [35] = assay: Antibacterial activity against beta-lactamase-negative Escherichia coli E424 after 24 hrs by agar dilution method; conditions: E424, 24 h
Acinetobacter baumannii [36] = assay: Antibacterial activity against Acinetobacter baumannii A896 after 24 hrs by agar dilution method; assay type: functional; conditions: A896, 24 h
Pseudomonas aeruginosa [37] = assay: Antibacterial activity against Pseudomonas aeruginosa P352 after 24 hrs by agar dilution method; assay type: functional; conditions: P352, 24 h
Klebsiella pneumoniae [38] = assay: Antibacterial activity against beta-lactamase-positive ESBL-negative Klebsiella pneumoniae E480 after 24 hrs by agar dilution method; assay type: functional; conditions: E480, 24 h
Escherichia coli [39] = assay: Antibacterial activity against beta-lactamase-negative Escherichia coli E345 after 24 hrs by agar dilution method; conditions: E345, 24 h
Klebsiella pneumoniae [40] = assay: Antibacterial activity against beta-lactamase-negative Klebsiella pneumoniae E419 after 24 hrs by agar dilution method; assay type: functional; conditions: E419, 24 h
Klebsiella pneumoniae [41] = assay: Antibacterial activity against beta-lactamase-positive ESBL-negative Klebsiella pneumoniae E479 after 24 hrs by agar dilution method; assay type: functional; conditions: E479, 24 h
Klebsiella pneumoniae [42] = assay: Antibacterial activity against beta-lactamase-positive ESBL-positive Klebsiella pneumoniae E478 after 24 hrs by agar dilution method; assay type: functional; conditions: E478, 24 h
Acinetobacter baumannii [43] = assay: Antibacterial activity against Acinetobacter baumannii A867 after 24 hrs by agar dilution method; assay type: functional; conditions: A867, 24 h
Pseudomonas aeruginosa [44] = assay: Antibacterial activity against Pseudomonas aeruginosa P327 after 24 hrs by agar dilution method; conditions: P327, 24 h
Pseudomonas aeruginosa [45] = assay: Antibacterial activity against Pseudomonas aeruginosa P337 after 24 hrs by agar dilution method; conditions: P337, 24 h
Acinetobacter baumannii [46] = assay: Antibacterial activity against Acinetobacter baumannii A898 after 24 hrs by agar dilution method; assay type: functional; conditions: A898, 24 h
Pseudomonas aeruginosa [47] = assay: Antibacterial activity against Pseudomonas aeruginosa P363 after 24 hrs by agar dilution method; conditions: P363, 24 h
Pseudomonas aeruginosa [48] = assay: Antibacterial activity against Pseudomonas aeruginosa P340 after 24 hrs by agar dilution method; conditions: P340, 24 h
Pseudomonas aeruginosa [49] = assay: Antibacterial activity against Pseudomonas aeruginosa P332 after 24 hrs by agar dilution method; conditions: P332, 24 h
Pseudomonas aeruginosa [50] = assay: Antibacterial activity against Pseudomonas aeruginosa P353 after 24 hrs by agar dilution method; assay type: functional; conditions: P353, 24 h
Acinetobacter baumannii [51] = assay: Antibacterial activity against Acinetobacter baumannii A931 after 24 hrs by agar dilution method; assay type: functional; conditions: A931, 24 h
Pseudomonas aeruginosa [52] = assay: Antibacterial activity against Pseudomonas aeruginosa P319 after 24 hrs by agar dilution method; assay type: functional; conditions: P319, 24 h
Acinetobacter baumannii [53] = assay: Antibacterial activity against Acinetobacter baumannii A884 after 24 hrs by agar dilution method; assay type: functional; conditions: A884, 24 h

C[C@@H](O)[C@H]1C(=O)N2C(C(=O)O)=C(S[C@@H]3CN[C@H](C(=O)Nc4cccc(C(=O)O)c4)C3)[C@H](C)[C@H]12
Ratio (Klebsiella pneumoniae [1]): 4
Ratio (Klebsiella pneumoniae [2]): 8
Ratio (Klebsiella pneumoniae [3]): 8
Ratio (Escherichia coli [4]): 16
Ratio (Klebsiella pneumoniae [5]): 4

C[C@@H](O)[C@H]1C(=O)N2C(C(=O)O)=C(S[C@@H]3CN[C@H](CNS(N)(=O)=O)C3)[C@H](C)[C@H]12 [DORIPENEM]
MIC (Pseudomonas aeruginosa [6]): 0.5 µg/mL (≈ 1.19 µM)
Ratio (Pseudomonas aeruginosa [7]): 4
Ratio (Klebsiella pneumoniae [1]): 1
Ratio (Acinetobacter baumannii [8]): 2
Ratio (Pseudomonas aeruginosa [9]): >16
Ratio (Acinetobacter baumannii [10]): 4
Ratio (Pseudomonas aeruginosa [11]): 16
Ratio (Klebsiella pneumoniae [2]): >16
MIC (Acinetobacter baumannii [12]): 8 µg/mL (≈ 19 µM)
Ratio (Klebsiella pneumoniae [3]): >16
MIC (Pseudomonas aeruginosa [13]): 0.5 µg/mL (≈ 1.19 µM)
MIC (Pseudomonas aeruginosa [14]): 0.25 µg/mL (≈ 0.595 µM)
MIC (Acinetobacter baumannii [15]): 2 µg/mL (≈ 4.76 µM)
MIC (Pseudomonas aeruginosa [16]): 1 µg/mL (≈ 2.38 µM)
Ratio (Acinetobacter baumannii [17]): 2
Ratio (Acinetobacter baumannii [18]): 16
Ratio (Escherichia coli [4]): 8
Ratio (Acinetobacter baumannii [19]): 2
Ratio (Klebsiella pneumoniae [5]): 4
Ratio (Pseudomonas aeruginosa [20]): 16
Ratio (Acinetobacter baumannii [21]): 2
Ratio (Pseudomonas aeruginosa [22]): >16
MIC (Pseudomonas aeruginosa [23]): 0.25 µg/mL (≈ 0.595 µM)
MIC (Pseudomonas aeruginosa [24]): 0.25 µg/mL (≈ 0.595 µM)
MIC (Pseudomonas aeruginosa [25]): 0.125 µg/mL (≈ 0.297 µM)
Ratio (Acinetobacter baumannii [26]): 4

C[C@@H](O)[C@H]1C(=O)N2C(C(=O)O)=C(SCCNC=N)C[C@H]12 [IMIPENEM ANHYDROUS]
MIC (Escherichia coli [27]): 0.25 µg/mL (≈ 0.835 µM)
MIC (Klebsiella pneumoniae [28]): 0.5 µg/mL (≈ 1.67 µM)
MIC (Klebsiella pneumoniae [29]): 0.5 µg/mL (≈ 1.67 µM)
MIC (Pseudomonas aeruginosa [30]): 2 µg/mL (≈ 6.68 µM)
MIC (Pseudomonas aeruginosa [31]): 2 µg/mL (≈ 6.68 µM)
MIC (Klebsiella pneumoniae [32]): 0.25 µg/mL (≈ 0.835 µM)
MIC (Pseudomonas aeruginosa [33]): 4 µg/mL (≈ 13.4 µM)
MIC (Acinetobacter baumannii [34]): 0.5 µg/mL (≈ 1.67 µM)
MIC (Escherichia coli [35]): 0.125 µg/mL (≈ 0.418 µM)
MIC (Acinetobacter baumannii [36]): 0.25 µg/mL (≈ 0.835 µM)
MIC (Pseudomonas aeruginosa [37]): 8 µg/mL (≈ 26.7 µM)
MIC (Klebsiella pneumoniae [38]): 2 µg/mL (≈ 6.68 µM)
MIC (Escherichia coli [39]): 0.25 µg/mL (≈ 0.835 µM)
MIC (Klebsiella pneumoniae [40]): 0.5 µg/mL (≈ 1.67 µM)
MIC (Klebsiella pneumoniae [41]): 8 µg/mL (≈ 26.7 µM)
MIC (Klebsiella pneumoniae [42]): 4 µg/mL (≈ 13.4 µM)
MIC (Acinetobacter baumannii [43]): 4 µg/mL (≈ 13.4 µM)
MIC (Pseudomonas aeruginosa [44]): 2 µg/mL (≈ 6.68 µM)
MIC (Pseudomonas aeruginosa [45]): 2 µg/mL (≈ 6.68 µM)
MIC (Acinetobacter baumannii [46]): 1 µg/mL (≈ 3.34 µM)
MIC (Pseudomonas aeruginosa [47]): 2 µg/mL (≈ 6.68 µM)
MIC (Pseudomonas aeruginosa [48]): 0.5 µg/mL (≈ 1.67 µM)
MIC (Pseudomonas aeruginosa [49]): 1 µg/mL (≈ 3.34 µM)
MIC (Pseudomonas aeruginosa [50]): 8 µg/mL (≈ 26.7 µM)
MIC (Acinetobacter baumannii [51]): 0.5 µg/mL (≈ 1.67 µM)
MIC (Pseudomonas aeruginosa [52]): 8 µg/mL (≈ 26.7 µM)
MIC (Acinetobacter baumannii [53]): 1 µg/mL (≈ 3.34 µM)

C[C@@H](O)[C@H]1C(=O)N2C(C(=O)O)=C(S[C@@H]3CN[C@H](C(=O)N(C)C)C3)[C@H](C)[C@H]12 [MEROPENEM]
MIC (Pseudomonas aeruginosa [6]): 2 µg/mL (≈ 5.22 µM)
MIC (Acinetobacter baumannii [12]): 8 µg/mL (≈ 20.9 µM)
MIC (Pseudomonas aeruginosa [13]): 1 µg/mL (≈ 2.61 µM)
MIC (Pseudomonas aeruginosa [14]): 0.5 µg/mL (≈ 1.3 µM)
MIC (Acinetobacter baumannii [15]): 2 µg/mL (≈ 5.22 µM)
MIC (Pseudomonas aeruginosa [16]): 1 µg/mL (≈ 2.61 µM)
MIC (Pseudomonas aeruginosa [23]): 0.25 µg/mL (≈ 0.652 µM)
MIC (Pseudomonas aeruginosa [24]): 1 µg/mL (≈ 2.61 µM)
MIC (Pseudomonas aeruginosa [25]): 0.25 µg/mL (≈ 0.652 µM)
